According to publication PMC9652372, “Glycolytic flux control by drugging phosphoglycolate phosphatase” (Nature Communications, 2022):
Values joined by “and” are separate entries in the source; they are usually repeats but may differ in a detail not shown here. Identical values can stand only once.

Tests used:
murine PGP = target: T1, murine PGP (Mus musculus, UniProt Q8CHP8); assay: SAR: CP1, CP2 and analogs on PGP phosphatase activity (PG); assay type: biochemical; parameters: His6 (N, cleaved yes); made in house; host or cells: Escherichia coli BL21 (DE3), pETM11, co-expressed with groES-groEL-tig
T1 sequence (Q8CHP8 1-321): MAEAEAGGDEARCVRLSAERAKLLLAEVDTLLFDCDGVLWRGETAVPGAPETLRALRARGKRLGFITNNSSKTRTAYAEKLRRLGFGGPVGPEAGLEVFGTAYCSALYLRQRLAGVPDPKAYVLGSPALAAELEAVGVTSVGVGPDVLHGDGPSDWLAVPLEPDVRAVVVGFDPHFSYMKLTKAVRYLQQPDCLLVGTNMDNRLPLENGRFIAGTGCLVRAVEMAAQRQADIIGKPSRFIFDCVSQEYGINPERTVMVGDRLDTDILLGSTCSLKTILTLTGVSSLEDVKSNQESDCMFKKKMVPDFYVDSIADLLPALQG

NT5C1A = target: T2, NT5C1A (Homo sapiens, UniProt Q9BXI3); assay: In vitro phosphatase activity assay, NT5C1A (AMP); assay type: biochemical; conditions: DMSO control = 100, read-out: NT5C1A activity on AMP in presence of CP relative to DMSO controls
T2 construct: purchased Origene #TP324617
T2 sequence (Q9BXI3 1-368): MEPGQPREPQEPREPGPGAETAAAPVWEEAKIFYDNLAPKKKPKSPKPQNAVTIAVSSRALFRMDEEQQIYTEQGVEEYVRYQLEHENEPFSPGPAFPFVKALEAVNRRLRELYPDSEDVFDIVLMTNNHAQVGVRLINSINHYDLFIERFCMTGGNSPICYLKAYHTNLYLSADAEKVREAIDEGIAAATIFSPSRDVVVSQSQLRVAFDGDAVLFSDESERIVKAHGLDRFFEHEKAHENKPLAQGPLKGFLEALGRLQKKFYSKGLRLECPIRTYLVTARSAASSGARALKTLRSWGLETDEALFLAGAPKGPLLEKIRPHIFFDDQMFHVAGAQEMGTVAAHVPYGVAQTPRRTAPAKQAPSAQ

inhibition of mPGP activity at 40 µM CP compared to DMSO control (%) (murine PGP; 40 µM CP, single experiments Exp #1-3): 91.3408% and 89.3401% and 90.1099% | remaining activity at 16 µM (murine PGP; CP log[M] -4.79588, read-out: mPGP activity in presence of CP relative to DMSO controls, mPGP on PG (norm.)): 20.6% | remaining activity at 4 µM (murine PGP; CP log[M] -5.39794, read-out: mPGP activity in presence of CP relative to DMSO controls, mPGP on PG (norm.)): 34.3% | remaining activity at 2 µM (murine PGP; CP log[M] -5.69897, read-out: mPGP activity in presence of CP relative to DMSO controls, mPGP on PG (norm.)): 51.6% | remaining activity at 1 µM (murine PGP; CP log[M] -6, read-out: mPGP activity in presence of CP relative to DMSO controls, mPGP on PG (norm.)): 67.7% | remaining activity at 0.5 µM (murine PGP; CP log[M] -6.30103, read-out: mPGP activity in presence of CP relative to DMSO controls, mPGP on PG (norm.)): 69% | remaining activity at […] (murine PGP; CP log[M] -6.60206, read-out: mPGP activity in presence of CP relative to DMSO controls, mPGP on PG (norm.)): 72.6% | remaining activity at 0.125 µM (murine PGP; CP log[M] -6.90309, read-out: mPGP activity in presence of CP relative to DMSO controls, mPGP on PG (norm.)): 81.8% | remaining activity at 0.0625 µM (murine PGP; CP log[M] -7.20412, read-out: mPGP activity in presence of CP relative to DMSO controls, mPGP on PG (norm.)): 84.3% | remaining activity at 0.015625 µM (murine PGP; CP log[M] -7.80618, read-out: mPGP activity in presence of CP relative to DMSO controls, mPGP on PG (norm.)): 96% | remaining activity at 50 µM (NT5C1A; CP log[M] -4.30103): 11.9% | remaining activity at 40 µM (NT5C1A; CP log[M] -4.39794): 20.5% | remaining activity at 30 µM (NT5C1A; CP log[M] -4.52288): 33.1% | remaining activity at 25 µM (NT5C1A; CP log[M] -4.60206): 45.1% | remaining activity at 20 µM (NT5C1A; CP log[M] -4.69897): 62.1% | remaining activity at 15 µM (NT5C1A; CP log[M] -4.82391): 69% | remaining activity at 10 µM (NT5C1A; CP log[M] -5): 74.2% | remaining activity at 5 µM (NT5C1A; CP log[M] -5.30103): 83.9% | remaining activity at […] (NT5C1A; CP log[M] -5.60206): 91.1%
Structure (SMILES): COc1ccc(C(=O)Nc2ccc(Cc3ccc(NC(=O)c4ccc(OC)c(OC)c4)c(C(=O)O)c3)cc2C(=O)O)cc1OC [CP2]
